Measurements from US20100168133A1, “USE OF SUBSTITUTED QUINOLINE DERIVATIVES FOR THE TREATMENT OF DRUG RESISTANT MYCOBACTERIAL DISEASES” (priority 2004, published 2010).
≈ marks a conversion by molar mass, not a printed value. Like-named read-outs stand apart in the source and are kept apart here.

How the values were obtained:
M. avium = assay type: cell-based; conditions: M. avium resistant to fluoroquinolones, mutation Ala83Val (Table 9)
M. fortuitum = assay: In-vitro MIC in solid medium against fluoroquinolone-resistant clinical isolates; assay type: cell-based; conditions: Mycolicibacterium fortuitum, no mutation indicated, Table 10 1st strain
[1] = test system: M. tuberculosis H37Rv strain; assay type: in vivo, Swiss female mice
[2] = test system: M. tuberculosis strain H37Rv; assay: In vivo susceptibility of M. tuberculosis to compound 12 in combination with other antimycobacterial agents, lung CFU (Tables 13, 14); set-up: species or system Swiss mice; conditions: for CFU 1 month (lung) / CFU 2 months (lung): once-a-day group (gavage 5 days/week from day 14), D0 = 7.23; for CFU 1 month (lung): lung CFU after 1 month of treatment; for CFU 2 months (lung): lung CFU after 2 months of treatment; for Decrease 1 mo vs D0 (lung CFU) / Decrease 2 mo vs D0 (lung CFU) / % positive mice 2nd month: once-a-day group; for Decrease 1 mo vs D0 (lung CFU): 1 month of treatment versus D0 (7.23); for Decrease 2 mo vs D0 (lung CFU): 2 months of treatment versus D0 (7.23); for % positive mice 2nd month: culture-positive mice / mice examined after 2 months; for % positive mice / lung CFU*: once-a-week group, after 2 months of treatment; for lung CFU*: by gavage, D0 value 7.23
[3] = […], treatment from day 14, five times weekly, title: 2 months (footnote: four weeks, sacrifice day 42)

COc1nc2ccc(Br)cc2cc1[C@@H](c1ccccc1)[C@@](O)(CCN(C)C)c1cccc2ccccc12 [Compound 12, (αS,βR)-6-bromo-α-[2-(dimethylamino)ethyl]-2-methoxy-α-1-naphthalenyl-β-phenyl-3-quinolineethanol]
MIC (M. avium): 0.007 µg/mL (≈ 0.0126 µM) | MIC (M. fortuitum): 0.01 µg/mL (≈ 0.018 µM) | Mean CFU (log10) per Lung [1, 3]: 0.22 ± 0.32 log10 | Mean CFU (log10) per Spleen [1, 3]: 1.24 ± 0.50 log10 | Spleen weight (mean) [1, 3]: 248 ± 47 mg | CFU 1 month (lung) [2]: 4.14 | CFU 2 months (lung) [2]: 2.28 | Decrease 1 mo vs D0 (lung CFU) [2]: −3.09 | Decrease 2 mo vs D0 (lung CFU) [2]: −4.95 | % positive mice 2nd month [2]: 8/10 | % positive mice [2]: 9/9 | lung CFU* [2]: 1.99 +/− 0.75

COc1c(N2C[C@@H]3CCCN[C@@H]3C2)c(F)cc2c(=O)c(C(=O)O)cn(C3CC3)c12 [M, moxifloxacin]
Mean CFU (log10) per Lung [1, 3]: 2.89 ± 0.57 log10 | Mean CFU (log10) per Spleen [1, 3]: 3.53 ± 0.34 log10 | Spleen weight (mean) [1, 3]: 400 ± 99 mg | CFU 1 month (lung) [2]: 5.51 | CFU 2 months (lung) [2]: 4.3 | Decrease 1 mo vs D0 (lung CFU) [2]: −1.72 | Decrease 2 mo vs D0 (lung CFU) [2]: −2.93 | % positive mice 2nd month [2]: 10/10 | % positive mice [2]: 7/7 | lung CFU* [2]: 6.44 +/− 0.5

CC1COc2c(N3CCN(C)CC3)c(F)cc3c(=O)c(C(=O)O)cn1c23 (stereo not drawn) [Ofloxacin, ofloxacin]
MIC (M. fortuitum): 1 µg/mL (≈ 2.77 µM)

CO[C@H]1/C=C/O[C@@]2(C)Oc3c(C)c(O)c4c(O)c(c(/C=N/N5CCN(C)CC5)c(O)c4c3C2=O)NC(=O)/C(C)=C\C=C\[C@H](C)[C@H](O)[C@@H](C)[C@@H](O)[C@@H](C)[C@H](OC(C)=O)[C@@H]1C [Rifampin, rifampin]
MIC (M. avium): 16 µg/mL (≈ 19.4 µM) | MIC (M. fortuitum): 128 µg/mL (≈ 156 µM) | Mean CFU (log10) per Lung ([1]; mouse, in vivo): 1.89 ± 0.50 log10 | Mean CFU (log10) per Spleen ([1]; mouse, in vivo): 2.75 ± 0.34 log10 | Spleen weight (mean) ([1]; mouse, in vivo): 391 ± 70 mg | CFU 1 month (lung) [2]: 6.01 | CFU 2 months (lung) [2]: 4.07 | Decrease 1 mo vs D0 (lung CFU) [2]: −1.22 | Decrease 2 mo vs D0 (lung CFU) [2]: −3.16 | % positive mice 2nd month [2]: 10/10
